Reference: patent publication US11752139B2, “Therapeutic combinations of orally administered irinotecan and a p-gp inhibitor for the treatment of cancer” (priority 2018, dated 2023)
Like-named read-outs stand apart in the source and are kept apart here.

Key:
[1] = Study 1: maximum tolerated dose of orally administered irinotecan with Compound A; format: in vivo, human; settings: dosed five days of week one during a three-week cycle
Description: Orally administered irinotecan was determined to have a maximum tolerated dose (MTD) of 20 mg/m^2 per day when dosed five days of week one during a three-week cycle.

[2] = Study 2: maximum tolerated dose of orally administered irinotecan with Compound A; format: in vivo, human; settings: dosed five days of week one and week two during a three-week cycle
Description: Orally administered irinotecan was determined to have a MTD of 10 mg/m^2 per day when dosed five days of week one and week two during a three-week cycle.

[3] = system: advanced malignancies; test: Phase 1 dose escalation study of oral irinotecan with 15 mg HM30181A: response; format: in vivo, human; settings: subjects with advanced malignancies; 15 mg HM30181A + oral irinotecan
Description: (§1) A phase 1 dose escalation study was performed to determine the MTD and DLT of orally administered irinotecan in combination with 15 mg (on day 1 of a 21-day cycle) of HM30181A. The study was performed on cohorts of 3-6 subjects with advanced malignancies. Subjects had Hb (hemoglobin count) 9 gm/dL, ANC (absolute neutrophil count) 1.5×10^9/L, and platelets 100×10^9/L, as well as adequate hepatic and renal function, and ECOG (Eastern Cooperative Oncology Group Performance Status) 0-1, and were not homozygous for UGT1A1*28.

[4] = human, in vivo
[5] = human, in vivo; remark: listed apart in the source
[6] = clinical; settings: human, in vivo
[7] = clinical; settings: human, in vivo; remark: listed apart in the source
[8] = clinical; settings: human, in vivo, po, N = 3; for AUC(0-t): AUC24 h
Description: as §1

[9] = Simple Emax model of exposure (AUCinf, Cmax) versus dose
[10] = Study 2: pharmacokinetics of oral irinotecan and M1, 5-20 mg/m^2 per day for 10 days during a 21 day cycle; settings: for AUC / Cmax: human, in vivo, oral, mean
[11] = Study 1: pharmacokinetics of oral irinotecan and M1, 5-30 mg/m^2 per day for five days during a 21 day cycle
[12] = 15 mg HM30181A + 20-320 mg/m^2 oral irinotecan, day 1 of 21-day cycle, 30 patients
[13] = 15 mg HM30181A + 20-320 mg/m^2 oral irinotecan, 30 patients
[14] = 320 mg/m^2 dose level, with 15 mg HM30181A
[15] = dose 240 mg/m^2 oral irinotecan + 15 mg HM30181A
[16] = dose 280 mg/m^2 oral irinotecan + 15 mg HM30181A
[17] = dose 320 mg/m^2 oral irinotecan + 15 mg HM30181A

## CCc1c2c(nc3ccc(OC(=O)N4CCC(N5CCCCC5)CC4)cc13)-c1cc3c(c(=O)n1C2)COC(=O)[C@]3(O)CC [oral irinotecan, (4S)-4,11-Diethyl-4-hydroxy-3,14-dioxo-3,4,12,14-tetrahydro-1H-pyrano[3′,4′:6,7]indolizino[1,2-b]quinolin-9-yl 1,4′-bipiperidine-1′-carboxylate, reference compound]
[1]
  maximum tolerated dose (MTD): 20 mg/m^2 per day
[2]
  MTD: 10 mg/m^2 per day
[3]
  response of stable disease: 9 out of 21
[4]; 5 mg/m2
  AUC24: 64.59 ng·h/mL
[4]; 10 mg/m2
  AUC24: 209.12 ng·h/mL
[4]; 15 mg/m2
  AUC24: 379.56 ng·h/mL
[4]; 25 mg/m2
  AUC24: 481.39 ng·h/mL
[4]; 30 mg/m2
  AUC24: 454.54 ng·h/mL
[5]
  Cmax compared with IV dosed irinotecan: below the range for 125 mg/m^2 of IV dosed irinotecan
  dose at which Cmax began to plateau: 200 mg/m^2
[5]; po, 280 mg/m2
  Tmax: 1 h
15 mg HM30181A + 20-320 mg/m^2 oral irinotecan
  Acute cholinergic diarrhea: not observed
[12]
  Treatment-related Grade 3-4 AEs, number of subjects: 12 subjects
  Treatment-related Grade 3-4 AEs, share of subjects: 40%
[13]
  SAEs nausea or vomiting, number of subjects: 4 subjects
  Treatment-related SAEs, number of patients: 6 patients
  vomiting (most common AEs), share of subjects: 20%
[14]
  DLTs, number of subjects: 2 subjects
  kind of DLTs: neutropenia and C. Difficile diarrhea
[6]; 5 mg/m2, AUC24
  AUC: 50.9 ng·h/mL
[6]; 5 mg/m2, Cmax
  Cmax: 6.52 ng/mL
[6]; 10 mg/m2, AUC24
  AUC: 110 ng·h/mL
[6]; 10 mg/m2, Cmax
  Cmax: 14 ng/mL
[6]; 15 mg/m2, AUC24
  AUC: 194 ng·h/mL
[6]; 15 mg/m2, Cmax
  Cmax: 20.6 ng/mL
[6]; 20 mg/m2, AUC24
  AUC: 277 ng·h/mL
[6]; 20 mg/m2, Cmax
  Cmax: 31.9 ng/mL
[6]; 25 mg/m2, AUC24
  AUC: 703 ng·h/mL
[6]; 25 mg/m2, Cmax
  Cmax: 63.6 ng/mL
[6]; 30 mg/m2, AUC24
  AUC: 736 ng·h/mL
[6]; 30 mg/m2, Cmax
  Cmax: 57.3 ng/mL
[7]; 240 mg/m2, Observed Mean (Cmax)
  Cmax: 798 ng/mL
[7]; 240 mg/m2, Observed Mean AUCinf
  AUC0-inf: 8150 ng·h/mL
[7]; 280 mg/m2, Observed Mean (Cmax)
  Cmax: 763 ng/mL
[7]; 280 mg/m2, Observed Mean AUCinf
  AUC0-inf: 6980 ng·h/mL
[7]; 320 mg/m2, Observed Mean (Cmax)
  Cmax: 1060 ng/mL
[7]; 320 mg/m2, Observed Mean AUCinf
  AUC0-inf: 14200 ng·h/mL
[7]; po, 240 mg/m2, Cmax
  Cmax: 668 ng/mL
[7]; po, 240 mg/m2, Tmax
  Tmax: 3 h
[7]; po, 280 mg/m2, AUC24
  AUC: 5020 ng·h/mL
[7]; po, 280 mg/m2, AUCinf
  AUC0-inf: 6010 ng·h/mL
[7]; po, 280 mg/m2, AUClast
  AUC(0-t): 5890 ng·h/mL
[7]; po, 280 mg/m2, Cmax
  Cmax: 736 ng/mL
[7]; po, 320 mg/m2, Tmax
  Tmax: 3 h
[8]; [15]
  AUC(0-t): 6960 ng·h/mL
  Cmax: 798 ng/mL
  Tmax: 3 h
[8]; [16]
  AUC(0-t): 6040 ng·h/mL
  Cmax: 763 ng/mL
  Tmax: 2 h
[8]; [17]
  AUC(0-t): 11300 ng·h/mL
  Cmax: 1060 ng/mL
  Tmax: 3 h
[9]; dose 200 mg/m^2
  Predicted AUCinf: 6992
  Predicted Cmax: 549
[9]; dose 240 mg/m^2
  Predicted AUCinf: 7679
  Predicted Cmax: 600
[9]; dose 280 mg/m^2
  Predicted AUCinf: 8253
  Predicted Cmax: 643
[9]; dose 320 mg/m^2
  Predicted AUCinf: 10189
  Predicted Cmax: 752
[10]; 5-20 mg/m^2 per day for 10 days during a 21 day cycle
  pharmacokinetics versus dose: increased proportionally with dose
[10]; 5 mg/m2, AUC24, Day 1, dose group 5 mg/m^2
  AUC: 72.1 ng·h/mL
[10]; 5 mg/m2, AUC24, Day 12, dose group 5 mg/m^2
  AUC: 95.1 ng·h/mL
[10]; 5 mg/m2, Cmax, Day 1, dose group 5 mg/m^2
  Cmax: 9.65 ng/mL
[10]; 10 mg/m2, AUC24, Day 1, dose group 10 mg/m^2
  AUC: 123 ng·h/mL
[10]; 10 mg/m2, AUC24, Day 12, dose group 10 mg/m^2
  AUC: 186 ng·h/mL
[10]; 10 mg/m2, Cmax, Day 1, dose group 10 mg/m^2
  Cmax: 15.5 ng/mL
[10]; 10 mg/m2, Cmax, Day 12, dose group 10 mg/m^2
  Cmax: 17.9 ng/mL
[10]; 15 mg/m2, AUC24, Day 1, dose group 15 mg/m^2
  AUC: 284 ng·h/mL
[10]; 15 mg/m2, AUC24, Day 12, dose group 15 mg/m^2
  AUC: 281 ng·h/mL
[10]; 15 mg/m2, Cmax, Day 1, dose group 15 mg/m^2
  Cmax: 26.9 ng/mL
[10]; 15 mg/m2, Cmax, Day 12, dose group 15 mg/m^2
  Cmax: 38.1 ng/mL
[10]; 20 mg/m2, AUC24, Day 1, dose group 20 mg/m^2
  AUC: 271 ng·h/mL
[10]; 20 mg/m2, AUC24, Day 12, dose group 20 mg/m^2
  AUC: 442 ng·h/mL
[10]; 20 mg/m2, Cmax, Day 1, dose group 20 mg/m^2
  Cmax: 28.8 ng/mL
[10]; 20 mg/m2, Cmax, Day 12, dose group 20 mg/m^2
  Cmax: 64.6 ng/mL
[11]; 5-30 mg/m^2 per day for five days during a 21 day cycle
  pharmacokinetics versus dose: increased proportionally with dose
[11]; human, in vivo, 20 mg/m2
  AUC: 412 ng·h/mL
